For assay [1], the species on record is Mus musculus. Briefly: Hypothermia measured as changes in rectal temperature (RT).
Assay [2] is filed under the species Mus musculus. Briefly: Effective concentration that causes twitch inhibition in a mouse vas deferens assay. The format is functional, organism-based.
The target in assay [3] is T1, Cannabinoid receptor (Rattus norvegicus, UniProt Q9QZN9+P20272). Description: Binding affinity towards cannabinoid receptor using [3H]SR-141,716A as radioligand in rat brain membrane. Format: cell membranes.
Assay [4] has as its target T1, Cannabinoid receptor. Briefly: Binding affinity towards cannabinoid receptor using [3H]CP-55940 as radioligand in rat brain membrane. The format is cell membranes.
The species entered for assay [5] is Mus musculus. Description: Maximal degree of inhibition of electrically evoked contractions in a mouse vas deferens assay. The format is functional.
The species named for assay [6] is Mus musculus. Briefly: Maximum possible effect for ring immobility (RI). Format: functional.
The species named for assay [7] is Mus musculus. Briefly: Inhibition of spontaneous activity(SA) in mice was determined. The format is functional.
The species entered for assay [8] is Mus musculus. Briefly: Inhibition of tail flick response[…] in mice was determined. The format is functional.
The species named for assay [9] is Mus musculus. Briefly: Inhibition of ring immobility(RI) in mice was determined. Format: functional.
The species named for assay [10] is Mus musculus. Briefly: Maximum possible effect for antinociception as measured by the tail flick response (TF). Format: functional.
For assay [11], the species on record is Mus musculus. Description: Inhibition of rectal temperature(RT) in mice was determined. The format is functional.
The species named for assay [12] is Mus musculus. Briefly: Maximum possible effect for inhibition of spontaneous activity (SA). The format is functional.

The results in this text go back to ChEMBL document CHEMBL1130399 (J Med Chem, 1997).

The structures appear in SMILES notation.

By EC50 is commonly meant the concentration giving half of the maximal effect. Low values mean an effect from little substance, high ones a need for much substance. A word on the Ki: it is a measure of affinity in units of concentration, obtained from inhibition or displacement. A lower Ki goes with a stronger hold on the target. By Emax is commonly meant the size of the effect at its maximum, as opposed to the concentration needed. As a reminder, the ED50 is the midpoint of the dose-response relation. Low readings indicate an effect at a small dose, high ones a need for a large dose. In turn, `CCCCCCC(C)(C)/C=C\C/C=C\C/C=C\C/C=C\CCCC(=O)NCCC` gave a rectal temperature change in the assay filed under Mus musculus [1] of -1.5 °C. This compound also returned an EC50 in the assay listed under Mus musculus [2] of 11.7 nM. Moreover, the Ki is on record as 31 nM on Cannabinoid receptor [3] and 1.5 nM at Cannabinoid receptor [4]. In the assay filed under Mus musculus [5], this compound gave an Emax of 65.3%. The MPE in the assay filed under Mus musculus [6] worked out at 81%. For the same compound, the ED50 in the assay filed under Mus musculus [7] was 1.2 mg/kg; in the assay filed under Mus musculus [8], 6.3 mg/kg.
The compound `CCCCCCC(C)(C)/C=C\C/C=C\C/C=C\C/C=C\CCCC(=O)NCCO` returned a rectal temperature change in the assay filed under Mus musculus [1] of -3.5 °C. This compound gave an EC50 in the assay listed under Mus musculus [2] of 59.7 nM. Besides, the ED50 came to 1 mg/kg in the assay listed under Mus musculus [9], 1.5 mg/kg in the assay listed under Mus musculus [7], 2.9 mg/kg in the assay listed under Mus musculus [11] and 1.7 mg/kg in the assay filed under Mus musculus [8]. Also, the Ki is recorded as 153 nM on Cannabinoid receptor [3] and 1.9 nM at Cannabinoid receptor [4]. Also, the Emax in the assay filed under Mus musculus [5] was 68.3%. The MPE was 74% in the assay filed under Mus musculus [6], 91% in the assay filed under Mus musculus [10] and 90% in the assay listed under Mus musculus [12].
As for `CCCCCCC(C)(C)/C=C\C/C=C\C/C=C\C/C=C\CCCC(=O)NCCOC`, the rectal temperature change in the assay filed under Mus musculus [1] was -1.5 °C. In addition, in the assay filed under Mus musculus [2], the EC50 was 36 nM. Moreover, the ED50 in the assay filed under Mus musculus [9] amounted to 5.7 mg/kg; in the assay filed under Mus musculus [7] it was 4 mg/kg; in the assay filed under Mus musculus [8], 13.3 mg/kg. Also, the Ki on Cannabinoid receptor [3] is listed as 54 nM; at Cannabinoid receptor [4], 3.9 nM. Besides, the maximal effect (Emax) in the assay filed under Mus musculus [5] was found to be 44.6%. For the same compound, the values for the MPE in the assay filed under Mus musculus [6], in the assay listed under Mus musculus [10] and in the assay filed under Mus musculus [12] were 86%, 100% and 98%, respectively.
In the assay filed under Mus musculus [1], `CCCCCCC(C)(C)/C=C\C/C=C\C/C=C\C/C=C\CCCC(=O)N[C@@H](C)CO` showed a rectal temperature change of -2 °C. In addition, the EC50 in the assay listed under Mus musculus [2] was 28.3 nM. Besides, the ED50 came to 2.5 mg/kg in the assay filed under Mus musculus [9], 2.6 mg/kg in the assay filed under Mus musculus [7], 5 mg/kg in the assay listed under Mus musculus [11] and 4.8 mg/kg in the assay listed under Mus musculus [8]. Besides, the Ki is reported as 161 nM on Cannabinoid receptor [3] and 5 nM at Cannabinoid receptor [4]. The same compound had an Emax in the assay listed under Mus musculus [5] of 67.2%. Further, the MPE in the assay filed under Mus musculus [6] is 80%; in the assay listed under Mus musculus [10], 100%; in the assay listed under Mus musculus [12], 90%.
As to `CCCCC/C=C\C/C=C\C/C=C\C/C=C\CCCC(=O)N[C@H](C)CO` [METHANANDAMIDE], it took 10.1 nM to reach a half-maximal effect in the assay filed under Mus musculus [2] (EC50). In the assay listed under Mus musculus [5], this compound showed a maximal effect (Emax) of 100%.
Compound `CCCCC/C=C\C/C=C\C/C=C\C/C=C\CCCC(=O)NCCOC` displayed an EC50 in the assay filed under Mus musculus [2] of 3 nM. Further, the Ki was determined as 466 nM on Cannabinoid receptor [3] and 44 nM at Cannabinoid receptor [4]. The Emax in the assay filed under Mus musculus [5] was 34%.
Compound `CCCCC/C=C\C/C=C\C/C=C\C/C=C\CCCC(=O)NCCO` [ANANDAMIDE] displayed an EC50 in the assay listed under Mus musculus [2] of 52.7 nM. The compound also yielded an Emax in the assay listed under Mus musculus [5] of 100%. This compound also had a 50% effective dose (ED50) in the assay listed under Mus musculus [8] of 6.2 mg/kg.
The compound `CCCCCCC(C)(C)/C=C\C/C=C\C/C=C\C/C=C\CCCC(=O)N[C@H](C)CO` yielded a rectal temperature change in the assay filed under Mus musculus [1] of -2.8 °C. In addition, a half-maximal effect in the assay filed under Mus musculus [2] (EC50) was put at 60.6 nM. Also, the ED50 in the assay filed under Mus musculus [9] turned out to be 2.4 mg/kg; in the assay listed under Mus musculus [7], 1.1 mg/kg; in the assay filed under Mus musculus [11] it was 6 mg/kg; in the assay listed under Mus musculus [8], 1 mg/kg. Further, the inhibitory constant (Ki) at Cannabinoid receptor [3] was 220 nM; on Cannabinoid receptor [4] it was 1.7 nM. In the assay filed under Mus musculus [5], this compound had a maximal response (Emax) of 65.2%. Also, the MPE in the assay filed under Mus musculus [6] came out at 85%; in the assay listed under Mus musculus [10], 100%; in the assay listed under Mus musculus [12] it was 95%.
Turning to `CCCCC/C=C\C/C=C\C/C=C\C/C=C\CCCC(=O)NCCC`, the response in the assay filed under Mus musculus [2] was half-maximal at 10.9 nM (EC50). Besides, the Ki at Cannabinoid receptor [3] is 238 nM; on Cannabinoid receptor [4], 2.6 nM. In the assay listed under Mus musculus [5], this compound came in with a maximum response (Emax) of 51.2%.
In the case of `CCCCC/C=C\C/C=C\C/C=C\C/C=C\CCCC(=O)NC[C@H](C)O`, a half-maximal response in the assay listed under Mus musculus [2] (EC50) required 36.1 nM. The compound also showed a Ki at Cannabinoid receptor [4] of 57 nM. Also, in the assay filed under Mus musculus [5], the Emax came to 71.7%.
